Reference: ChEMBL document CHEMBL4665665, “4-Aryl Pyrrolidines as Novel Orally Efficacious Antimalarial Agents. Part 2: 2-Aryl-N-(4-arylpyrrolidin-3-yl)acetamides” (ACS Med Chem Lett, 2019)
Blank lines part the entries; values can stand above or below the compound they belong to. Activity calls are given as the source filed them. No cut-off for these calls is given here.

Key:
Plasmodium falciparum [1] = experiment: Antimalarial activity against CQ-sensitive Plasmodium falciparum 3D7 incubated for 72 hrs by SYBR Green-1 dye based fluorescence assay; assay type: functional, organism-based
Plasmodium chabaudi [2] = experiment: Antimalarial activity against Plasmodium chabaudi ASS infected in NIH mouse assessed as inhibition of parasitemia at 30 mg/kg, po qd for 4 days starting from 4 hrs post-parasite inoculation and measured at 24 hrs after last-drug treatment by Peter's 4-day suppressive test relative to control; assay type: functional; settings: 96 h
Plasmodium chabaudi [3] = experiment: Antimalarial activity against Plasmodium chabaudi ASS infected in NIH mouse assessed as inhibition of parasitemia at 10 mg/kg, po qd for 4 days starting from 4 hrs post-parasite inoculation and measured at 24 hrs after last-drug treatment by Peter's 4-day suppressive test relative to control; assay type: functional; settings: 96 h
[4] = Plasma concentration in NIH mouse infected with Plasmodium chabaudi ASS at 10 mg/kg, po qd for 4 days starting from 4 hrs post-parasite inoculation and measured at 1 hr post-dosing on day 4 by LC/MS analysis; assay type: ADME, organism-based; settings: dose 10 mg/kg/day, time 4 day
Cytochrome P450 3A4 = Cytochrome P450 3A4 (Homo sapiens, UniProt P08684); experiment: Inhibition of recombinant human CYP3A4 expressed in baculovirus infected insect cells using midazolam as substrate incubated for 30 mins in presence of NADPH-regenerating system by fluorescence based assay; assay type: ADME
[5] = molecular target: Beta-secretase 1 (Homo sapiens) (UniProt P56817); experiment: Inhibition of recombinant human BACE1 using Mca-SEVNLDAEFRK(Dnp)RR-NH2 fluorogenic peptide as substrate incubated for 60 mis by fluorescence based assay; settings: time 60.0 min
[6] = Apparent volume of distribution in KM mouse at 2 mg/kg, iv administered as cassette dosing measured up to 24 hrs by LC/MS analysis; assay type: ADME, organism-based; settings: in vivo, read-out: Vz
[7] = (§1) Plasma concentration in NIH mouse infected with Plasmodium chabaudi ASS at 10 mg/kg, po qd for 4 days starting from 4 hrs post-parasite inoculation and measured at 6 hrs post-dosing on day 4 by LC/MS analysis; assay type: ADME, organism-based; settings: dose 10 mg/kg/day, time 4 day
[8] = as §1, with “Ratio of IC50 for antimalarial activity against CQ-sensitive Plasmodium falciparum 3D7 incubated for 72 hrs by SYBR Green-1 dye based fluorescence assay to Plasma” for “Plasma”, “24” for “6”
Plasmodium falciparum [9] = experiment: Inhibition of Plasmodium falciparum plasmepsin 4 using PM-2 peptide substrate incubated for 60 mis by fluorescence based assay; settings: time 60.0 min
Cytochrome P450 1A2 = molecular target: T1, Cytochrome P450 1A2 (Homo sapiens, UniProt P05177); experiment: Inhibition of recombinant human CYP1A2 expressed in baculovirus infected insect cells using phenacetin as substrate incubated for 30 mins in presence of NADPH-regenerating system by fluorescence based assay; assay type: ADME
T1 sequence (P05177 whole entry): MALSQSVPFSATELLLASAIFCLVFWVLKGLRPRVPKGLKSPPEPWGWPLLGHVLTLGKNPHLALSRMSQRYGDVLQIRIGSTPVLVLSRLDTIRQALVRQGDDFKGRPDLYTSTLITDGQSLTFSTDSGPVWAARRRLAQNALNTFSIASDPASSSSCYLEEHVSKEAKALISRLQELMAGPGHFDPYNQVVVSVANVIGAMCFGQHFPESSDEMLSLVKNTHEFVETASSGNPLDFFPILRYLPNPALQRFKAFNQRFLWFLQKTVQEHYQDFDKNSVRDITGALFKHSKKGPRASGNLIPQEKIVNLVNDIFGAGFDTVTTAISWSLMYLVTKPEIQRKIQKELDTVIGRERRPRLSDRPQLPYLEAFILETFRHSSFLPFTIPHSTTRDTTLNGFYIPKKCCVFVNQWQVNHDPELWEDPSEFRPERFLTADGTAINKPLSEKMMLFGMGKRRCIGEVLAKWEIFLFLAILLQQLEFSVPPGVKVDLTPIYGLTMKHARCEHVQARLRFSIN

HepG2 = experiment: Cytotoxicity against human HepG2 cells assessed as cell viability at 5 uM incubated for 72 hrs by PrestoBlue cell viability reagent based assay; settings: hepg2, 72 h
Plasmodium falciparum [10] = experiment: Antimalarial activity against multidrug resistant Plasmodium falciparum Dd2 incubated for 72 hrs by SYBR Green-1 dye based fluorescence assay; assay type: functional, organism-based; settings: Dd2, 72 h
Cytochrome P450 2C19 = Cytochrome P450 2C19 (Homo sapiens, UniProt P33261); experiment: Inhibition of recombinant human CYP2C19 expressed in baculovirus infected insect cells using s-mephenytoin as substrate incubated for 30 mins in presence of NADPH-regenerating system by fluorescence based assay; assay type: ADME
[11] = Plasma concentration in NIH mouse infected with Plasmodium chabaudi ASS at 10 mg/kg, po qd for 4 days starting from 4 hrs post-parasite inoculation and measured at 24 hrs post-dosing on day 4 by LC/MS analysis; assay type: ADME, organism-based; settings: dose 10 mg/kg/day, time 4 day
Cytochrome P450 2D6 = Cytochrome P450 2D6 (Homo sapiens, UniProt P10635); experiment: Inhibition of recombinant human CYP2D6 expressed in baculovirus infected insect cells using dextromethorphan as substrate incubated for 30 mins in presence of NADPH-regenerating system by fluorescence based assay; assay type: ADME
[12] = molecular target: Voltage-gated inwardly rectifying potassium channel KCNH2 (Homo sapiens, UniProt Q12809); experiment: Displacement of Tracer Red from human ERG incubated for 2 hrs by fluorescence polarization assay
hERG = experiment: Selectivity ratio of IC50 for human ERG incubated for 2 hrs by fluorescence polarization assay to IC50 for CQ-sensitive Plasmodium falciparum 3D7 incubated for 72 hrs by SYBR Green-1 dye based fluorescence assay; assay type: toxicity; settings: read-out: Ratio IC50
[13] = Apparent clearance in KM mouse at 2 mg/kg, iv administered as cassette dosing measured up to 24 hrs by LC/MS analysis; assay type: ADME, organism-based; settings: in vivo
Cytochrome P450 2C9 = Cytochrome P450 2C9 (Homo sapiens, UniProt P11712); experiment: Inhibition of recombinant human CYP2C9 expressed in baculovirus infected insect cells using tolbutamide as substrate incubated for 30 mins in presence of NADPH-regenerating system by fluorescence based assay; assay type: ADME
[14] = Half life in KM mouse at 2 mg/kg, iv administered as cassette dosing measured up to 24 hrs by LC/MS analysis; assay type: ADME, organism-based; settings: in vivo
[15] = molecular target: Plasmepsin II (Plasmodium falciparum) (UniProt P46925); experiment: Inhibition of Plasmodium falciparum plasmepsin 2 using PM-2 peptide substrate incubated for 60 mis by fluorescence based assay; settings: time 60.0 min
[16] = Plasmodium falciparum, 3D7, 72 h

Chain of Cytochrome P450 2D6 (P10635 whole entry): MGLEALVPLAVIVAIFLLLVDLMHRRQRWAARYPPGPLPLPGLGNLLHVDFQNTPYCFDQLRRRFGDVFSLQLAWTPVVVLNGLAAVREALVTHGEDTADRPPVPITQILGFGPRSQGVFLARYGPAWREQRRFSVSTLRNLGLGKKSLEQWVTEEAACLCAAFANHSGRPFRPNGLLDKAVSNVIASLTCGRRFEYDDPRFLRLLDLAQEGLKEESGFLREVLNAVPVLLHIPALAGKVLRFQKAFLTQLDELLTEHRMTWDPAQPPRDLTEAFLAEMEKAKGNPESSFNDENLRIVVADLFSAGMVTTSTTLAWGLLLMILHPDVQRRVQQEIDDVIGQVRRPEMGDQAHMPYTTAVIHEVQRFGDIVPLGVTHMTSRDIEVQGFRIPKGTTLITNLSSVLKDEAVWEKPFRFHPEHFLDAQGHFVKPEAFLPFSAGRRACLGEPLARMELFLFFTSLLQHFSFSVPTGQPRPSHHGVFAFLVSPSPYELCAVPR
Chain of Plasmepsin II (Plasmodium falciparum) (P46925 125-453 limits assumed): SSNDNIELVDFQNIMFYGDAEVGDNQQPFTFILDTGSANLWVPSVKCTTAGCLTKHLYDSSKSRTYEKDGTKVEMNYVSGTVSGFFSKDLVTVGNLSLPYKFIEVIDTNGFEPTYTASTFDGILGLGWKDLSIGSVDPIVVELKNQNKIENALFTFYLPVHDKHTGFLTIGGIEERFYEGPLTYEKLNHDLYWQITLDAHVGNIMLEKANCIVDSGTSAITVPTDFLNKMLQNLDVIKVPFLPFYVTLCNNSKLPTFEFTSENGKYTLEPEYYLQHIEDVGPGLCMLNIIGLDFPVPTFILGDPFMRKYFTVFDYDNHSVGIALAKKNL
Chain of Beta-secretase 1 (Homo sapiens) (P56817 whole entry): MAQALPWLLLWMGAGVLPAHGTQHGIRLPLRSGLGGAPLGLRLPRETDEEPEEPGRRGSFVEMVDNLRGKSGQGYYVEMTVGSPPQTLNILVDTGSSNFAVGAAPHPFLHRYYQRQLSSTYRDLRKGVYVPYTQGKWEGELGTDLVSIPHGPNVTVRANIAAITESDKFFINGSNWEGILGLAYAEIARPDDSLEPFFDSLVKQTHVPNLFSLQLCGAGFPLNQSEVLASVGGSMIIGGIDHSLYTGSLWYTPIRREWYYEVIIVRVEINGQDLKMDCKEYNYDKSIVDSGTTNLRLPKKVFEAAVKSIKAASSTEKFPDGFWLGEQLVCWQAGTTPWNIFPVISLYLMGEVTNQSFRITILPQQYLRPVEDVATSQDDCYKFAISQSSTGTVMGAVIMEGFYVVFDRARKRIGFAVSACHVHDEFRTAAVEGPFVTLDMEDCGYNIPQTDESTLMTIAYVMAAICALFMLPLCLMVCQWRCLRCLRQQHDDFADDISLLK
Chain of Cytochrome P450 2C19 (P33261 whole entry): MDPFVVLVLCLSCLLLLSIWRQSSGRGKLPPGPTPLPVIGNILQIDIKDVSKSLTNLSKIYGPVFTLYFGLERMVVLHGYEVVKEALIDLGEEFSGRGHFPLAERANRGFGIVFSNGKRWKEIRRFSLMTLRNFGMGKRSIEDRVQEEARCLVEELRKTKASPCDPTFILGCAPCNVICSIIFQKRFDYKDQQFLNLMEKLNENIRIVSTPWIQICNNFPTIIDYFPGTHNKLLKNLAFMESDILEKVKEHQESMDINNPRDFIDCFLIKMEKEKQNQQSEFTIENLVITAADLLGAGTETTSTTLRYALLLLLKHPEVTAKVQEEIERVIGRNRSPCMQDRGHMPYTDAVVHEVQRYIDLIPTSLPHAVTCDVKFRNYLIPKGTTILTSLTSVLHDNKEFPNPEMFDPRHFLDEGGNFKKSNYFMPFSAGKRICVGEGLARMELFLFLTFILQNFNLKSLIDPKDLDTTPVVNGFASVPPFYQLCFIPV
Chain of Cytochrome P450 3A4 (P08684 whole entry): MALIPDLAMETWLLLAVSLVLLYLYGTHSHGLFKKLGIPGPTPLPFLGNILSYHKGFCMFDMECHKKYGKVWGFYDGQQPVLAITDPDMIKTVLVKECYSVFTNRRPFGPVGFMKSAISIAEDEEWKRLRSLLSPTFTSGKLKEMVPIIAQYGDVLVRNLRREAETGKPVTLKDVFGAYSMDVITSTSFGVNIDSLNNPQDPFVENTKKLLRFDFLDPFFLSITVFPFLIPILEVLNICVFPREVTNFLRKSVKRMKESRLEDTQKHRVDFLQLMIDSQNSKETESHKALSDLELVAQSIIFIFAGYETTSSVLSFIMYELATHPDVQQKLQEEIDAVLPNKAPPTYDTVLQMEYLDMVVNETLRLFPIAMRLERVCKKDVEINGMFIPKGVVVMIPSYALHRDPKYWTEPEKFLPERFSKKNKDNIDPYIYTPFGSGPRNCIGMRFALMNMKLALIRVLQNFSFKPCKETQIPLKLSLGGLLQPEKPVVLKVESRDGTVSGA
Chain of Cytochrome P450 2C9 (P11712 whole entry): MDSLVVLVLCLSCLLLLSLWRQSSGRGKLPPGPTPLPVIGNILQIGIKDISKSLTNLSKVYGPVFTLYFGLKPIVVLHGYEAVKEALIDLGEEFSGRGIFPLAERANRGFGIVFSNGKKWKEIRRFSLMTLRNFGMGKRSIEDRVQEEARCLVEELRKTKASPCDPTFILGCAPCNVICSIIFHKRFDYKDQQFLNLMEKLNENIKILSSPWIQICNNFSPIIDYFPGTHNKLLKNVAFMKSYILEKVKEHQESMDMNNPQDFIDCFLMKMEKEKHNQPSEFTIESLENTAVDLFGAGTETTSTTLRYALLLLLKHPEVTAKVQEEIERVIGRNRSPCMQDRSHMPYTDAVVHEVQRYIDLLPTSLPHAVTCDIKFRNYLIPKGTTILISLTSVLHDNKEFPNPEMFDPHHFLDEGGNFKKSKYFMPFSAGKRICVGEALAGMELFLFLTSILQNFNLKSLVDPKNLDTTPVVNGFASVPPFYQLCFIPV
Chain of Voltage-gated inwardly rectifying potassium channel KCNH2 (Q12809 whole entry): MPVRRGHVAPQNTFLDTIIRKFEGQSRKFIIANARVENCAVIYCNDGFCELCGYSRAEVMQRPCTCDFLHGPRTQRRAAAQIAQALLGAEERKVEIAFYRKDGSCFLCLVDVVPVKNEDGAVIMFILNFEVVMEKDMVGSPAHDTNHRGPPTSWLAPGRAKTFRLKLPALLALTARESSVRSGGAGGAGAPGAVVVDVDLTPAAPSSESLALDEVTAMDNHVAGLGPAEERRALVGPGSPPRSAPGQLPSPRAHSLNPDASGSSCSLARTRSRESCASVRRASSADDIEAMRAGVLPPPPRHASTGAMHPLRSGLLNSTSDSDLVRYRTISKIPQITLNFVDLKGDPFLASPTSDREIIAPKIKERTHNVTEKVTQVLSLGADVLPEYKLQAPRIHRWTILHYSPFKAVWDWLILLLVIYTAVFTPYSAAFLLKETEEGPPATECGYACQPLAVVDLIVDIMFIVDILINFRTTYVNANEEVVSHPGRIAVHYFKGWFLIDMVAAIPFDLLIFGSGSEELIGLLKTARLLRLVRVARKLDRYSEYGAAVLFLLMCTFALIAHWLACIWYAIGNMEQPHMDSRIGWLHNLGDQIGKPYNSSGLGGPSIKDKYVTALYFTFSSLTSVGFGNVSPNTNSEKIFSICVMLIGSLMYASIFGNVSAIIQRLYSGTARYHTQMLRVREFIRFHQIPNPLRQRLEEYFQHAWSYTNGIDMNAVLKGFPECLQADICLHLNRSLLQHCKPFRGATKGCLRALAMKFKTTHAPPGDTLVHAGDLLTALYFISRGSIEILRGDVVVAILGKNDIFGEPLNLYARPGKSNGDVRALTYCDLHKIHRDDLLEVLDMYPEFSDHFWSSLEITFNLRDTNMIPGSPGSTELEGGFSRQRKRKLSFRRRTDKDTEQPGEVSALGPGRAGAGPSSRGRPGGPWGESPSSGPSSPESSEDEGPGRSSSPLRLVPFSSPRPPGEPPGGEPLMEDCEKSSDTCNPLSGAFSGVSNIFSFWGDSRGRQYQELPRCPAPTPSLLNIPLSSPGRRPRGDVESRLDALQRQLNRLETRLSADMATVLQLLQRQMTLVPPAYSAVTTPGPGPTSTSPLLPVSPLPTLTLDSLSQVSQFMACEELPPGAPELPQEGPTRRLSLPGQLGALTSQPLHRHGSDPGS

SMILES: C[C@H](NC(=O)[C@H]1CNC[C@@H]1c1ccc(C(F)(F)F)cc1)c1ccc(N(C)C)cc1
inhibition in vivo at 30 mg/kg/day (Plasmodium chabaudi [2]): 92.2%

SMILES: CN(C)c1ccc(CC(=O)N[C@H]2CNC[C@@H]2c2ccc(C(C)(F)F)cc2)cc1
IC50 (Plasmodium falciparum [1]; [16]): 440 nM

SMILES: CN(C)c1ccc(CC(=O)N[C@@H]2CNC[C@H]2c2cc3cc(Cl)ccc3o2)cc1
IC50 (Plasmodium falciparum [1]; [16]): 1000 nM

SMILES: CN(C)c1ccc(CC(=O)N[C@@H]2CNC[C@H]2c2cc3ccccc3s2)cc1
IC50 (Plasmodium falciparum [1]; [16]): 150 nM

SMILES: CN(C)c1ccc(CC(=O)N[C@@H]2CNC[C@H]2c2ccc(C(F)(F)F)cc2)cc1
inhibition in vivo at 10 mg/kg/day (Plasmodium chabaudi [3]): 61.2% | concentration at 96 h [4]: 255 nM | IC50 (Cytochrome P450 3A4): 871 nM | inhibition [5]: inactive | Vd [6]: 4.2 L/kg | concentration at 96 h [7]: 181 nM | Ratio [8]: 6 | inhibition (Plasmodium falciparum [9]): inactive | IC50 (Cytochrome P450 1A2): > 100000 nM | Activity (HepG2): Non-Toxic | IC50 (Plasmodium falciparum [10]): 78 nM | IC50 (Cytochrome P450 2C19): 45400 nM | concentration at 96 h [11]: 7.4 nM | IC50 (Plasmodium falciparum [1]; [16]): 120 nM | IC50 (Cytochrome P450 2D6): 24500 nM | IC50 [12]: 5910 nM | selectivity ratio at 2 h (hERG): 49 | clearance [13]: 7.9 mL/min/kg | IC50 (Cytochrome P450 2C9): 98100 nM | half-life [14]: 5.6 h | inhibition [15]: inactive

SMILES: Cc1ccc(CC(=O)N[C@H]2CNC[C@@H]2c2ccc(C(F)(F)F)cc2)cc1 (racemic)
IC50 (Plasmodium falciparum [1]; [16]): 230 nM

SMILES: CN(C)c1ccc(CC(=O)N[C@H]2CNC[C@@H]2c2ccc(C(F)(F)F)cc2)cc1
IC50 (Plasmodium falciparum [1]): 860 nM

SMILES: CN(C)c1ccc(CC(=O)N[C@@H]2CNC[C@H]2c2ccc(S(F)(F)(F)(F)F)cc2)cc1
inhibition in vivo at 10 mg/kg/day (Plasmodium chabaudi [3]): 65.3% | concentration at 96 h [4]: 129 nM | IC50 (Cytochrome P450 3A4): 159 nM | inhibition [5]: inactive | Vd [6]: 6.2 L/kg | concentration at 96 h [7]: 119 nM | Ratio [8]: 6 | inhibition (Plasmodium falciparum [9]): inactive | IC50 (Cytochrome P450 1A2): > 100000 nM | Activity (HepG2): Non-Toxic | IC50 (Plasmodium falciparum [10]): 89 nM | IC50 (Cytochrome P450 2C19): 29400 nM | concentration at 96 h [11]: 14.9 nM | IC50 (Plasmodium falciparum [1]; [16]): 91 nM | IC50 (Cytochrome P450 2D6): 90000 nM | IC50 [12]: 2570 nM | selectivity ratio at 2 h (hERG): 28 | clearance [13]: 10.5 mL/min/kg | IC50 (Cytochrome P450 2C9): 36600 nM | half-life [14]: 7 h | inhibition [15]: inactive

SMILES: CN1C[C@@H](N(C)C(=O)Cc2ccc(N(C)C)cc2)[C@H](c2ccc(C(F)(F)F)nc2)C1 (racemic)
IC50 (Plasmodium falciparum [1]; [16]): 1400 nM

More lines, in order of falling IC50 (Plasmodium falciparum [1]; [16]), values ahead:

IC50 (Plasmodium falciparum [1]; [16]): 1600 nM
SMILES: Cc1ccc(CC(=O)N[C@H]2CNC[C@@H]2c2ccc(C(F)(F)F)cc2)nc1 (racemic)

IC50 (Plasmodium falciparum [1]; [16]): 1400 nM
SMILES: CN(C)c1ccc(CCC(=O)N[C@H]2CNC[C@@H]2c2ccc(C(F)(F)F)cc2)cc1 (racemic)

IC50 (Plasmodium falciparum [1]; [16]): 370 nM
SMILES: Cc1cccc(CC(=O)N[C@H]2CNC[C@@H]2c2ccc(C(F)(F)F)cc2)c1 (racemic)

IC50 (Plasmodium falciparum [1]; [16]): 250 nM
SMILES: CN(C)c1ccc(CNC(=O)[C@H]2CNC[C@@H]2c2ccc(C(F)(F)F)nc2)cc1 (racemic)

IC50 (Plasmodium falciparum [1]; [16]): 210 nM
SMILES: CN(C)c1ccc(CC(=O)N[C@H]2CNC[C@@H]2c2ccc(C(F)(F)F)nc2)cc1 (racemic)

IC50 (Plasmodium falciparum [1]; [16]): 200 nM
SMILES: CN(C)c1ccc(CC(=O)N(C)[C@@H]2CNC[C@H]2c2ccc(C(F)(F)F)cc2)cc1

IC50 (Plasmodium falciparum [1]; [16]): 190 nM
SMILES: CN(C)c1ccc(CNC(=O)[C@H]2CNC[C@@H]2c2ccc(C(F)(F)F)cc2)cc1 (racemic)

IC50 (Plasmodium falciparum [1]; [16]): 140 nM
SMILES: CN(C)c1ccc(CC(=O)N[C@@H]2CNC[C@H]2c2ccc(C(F)(F)C(F)(F)F)cc2)cc1

IC50 (Plasmodium falciparum [1]; [16]): 63 nM
SMILES: CN(C)c1ccc(CC(=O)N[C@@H]2CNC[C@H]2c2ccc(C(F)(F)C(F)(F)F)nc2)cc1

IC50 (Plasmodium falciparum [1]; [16]): 60 nM
SMILES: CN(C)c1ccc(CC(=O)N[C@@H]2CNC[C@H]2c2ccc(C(C)(F)F)nc2)cc1

IC50 (Plasmodium falciparum [1]; [16]): 59 nM
SMILES: CN(C)c1ccc(CC(=O)N[C@@H]2CNC[C@H]2c2cccc(S(F)(F)(F)(F)F)c2)cc1
